Values quoted from earlier work, collected in patent US8530463B2, “Multimodal particulate formulations” (Hale Biopharma Ventures LLC, priority 2007, dated 2013).

For `Cc1ncc2n1-c1ccc(Cl)cc1C(c1ccccc1F)=NC2` [Midazolam, 8-chloro-6-(2-fluorophenyl)-1-methyl-4H-imidazo[1,5-a]benzodiazepine], the “solubility in most aqueous solutions” value (neutral pH (e.g. about 6 to 8)) is given as “relatively insoluble” and the solubility in water (pH lower than about 4) is given as “soluble”.
